Experimental data reported in patent US11554118B2 (priority 2017, dated 2023).
Where two headings read alike, the source gives them in different places.

Assays:
Btk [1] = biological target: Btk (Mus musculus (Mouse), UniProt P35991); experiment: Btk occupancy in vivo (PCI-33380 labeling of PBMCs or splenocytes); parameters: species or system BALB/c mice; conditions: Babc/L mice, after 4 hours
Description: For analysis of Btk occupancy in Babc/L mice following oral dosing of compounds after 4 hours. Isolating peripheral blood mononuclear cells (PBMCs) with mouse peripheral blood separation kit (Hao Yang Biological Manufacture CO., LTD, Tianjin) were collected from Babc/L mice (1 ml blood from two mice). Spleens were processed to splenocytes followed by 5 min incubation in red blood cell lysing buffer (from mouse peripheral blood separation kit).

BTK [2] = biological target: BTK (Homo sapiens (Human), UniProt Q06187); experiment: biochemical
Sequence of BTK (Q06187 whole entry, looked up, species assumed): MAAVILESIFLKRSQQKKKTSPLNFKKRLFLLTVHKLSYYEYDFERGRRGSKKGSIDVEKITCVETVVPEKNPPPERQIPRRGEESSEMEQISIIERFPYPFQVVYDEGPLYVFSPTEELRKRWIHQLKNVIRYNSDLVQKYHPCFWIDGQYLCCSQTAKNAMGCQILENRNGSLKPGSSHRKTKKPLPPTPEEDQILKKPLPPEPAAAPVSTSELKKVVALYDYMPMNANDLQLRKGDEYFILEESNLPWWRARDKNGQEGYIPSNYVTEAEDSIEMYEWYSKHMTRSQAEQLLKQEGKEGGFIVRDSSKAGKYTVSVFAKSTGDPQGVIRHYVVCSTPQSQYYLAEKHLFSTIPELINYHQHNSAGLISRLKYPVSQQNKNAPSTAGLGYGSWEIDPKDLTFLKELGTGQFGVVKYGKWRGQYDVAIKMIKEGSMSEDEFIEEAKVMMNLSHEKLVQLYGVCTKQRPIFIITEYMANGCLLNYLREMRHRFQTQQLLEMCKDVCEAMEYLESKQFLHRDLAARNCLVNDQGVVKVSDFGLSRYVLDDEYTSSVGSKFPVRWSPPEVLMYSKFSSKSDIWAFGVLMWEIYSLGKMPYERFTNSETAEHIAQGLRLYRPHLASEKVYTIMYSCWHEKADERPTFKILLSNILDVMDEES
Description: Btk kinase activity was determined using a homogenous time resolved fluorescence (HTRF) methodology. Measurements were performed in a reaction volume of 15 μL using 384-well assay plates. Kinase enzyme, inhibitor, ATP and 1 M peptide substrate were incubated in a reaction buffer compose of Hepes 50 mM (pH7.0), NaN3 0.02%, BSA 0.01%, Orthocanadate 0.1 mM. […] For each compound, enzyme activity as measured at various concentrations of compound, Negative control reactions were performed in the absence of inhibitor in two replicates and eight no enzyme controls were used to determine baseline fluorescence levels.

Sequence of Btk (P35991 whole entry, looked up): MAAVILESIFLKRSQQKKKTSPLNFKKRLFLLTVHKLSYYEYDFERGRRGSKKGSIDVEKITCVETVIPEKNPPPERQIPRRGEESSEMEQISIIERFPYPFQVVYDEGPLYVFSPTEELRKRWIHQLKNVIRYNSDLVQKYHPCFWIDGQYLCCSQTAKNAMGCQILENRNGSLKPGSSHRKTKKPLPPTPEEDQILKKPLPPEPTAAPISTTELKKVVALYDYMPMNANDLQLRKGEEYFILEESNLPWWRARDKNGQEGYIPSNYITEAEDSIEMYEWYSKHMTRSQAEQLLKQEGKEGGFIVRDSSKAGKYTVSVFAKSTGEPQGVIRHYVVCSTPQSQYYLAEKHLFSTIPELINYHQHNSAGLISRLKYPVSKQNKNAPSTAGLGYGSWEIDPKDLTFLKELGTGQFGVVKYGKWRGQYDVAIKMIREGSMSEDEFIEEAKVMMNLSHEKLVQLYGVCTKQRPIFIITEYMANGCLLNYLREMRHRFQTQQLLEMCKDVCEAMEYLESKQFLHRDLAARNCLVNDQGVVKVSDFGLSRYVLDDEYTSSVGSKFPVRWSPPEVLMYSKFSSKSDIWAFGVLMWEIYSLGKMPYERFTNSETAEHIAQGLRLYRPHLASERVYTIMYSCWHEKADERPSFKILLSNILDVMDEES

C=CC(=O)N1CCC[C@@H](c2nc(-c3ccc(Oc4cccc(OC)c4F)cc3)c3cnccn23)C1 [Compound 1, (R)-1-(3-(1-(4-(2-fluoro-3-methoxyphenoxy)phenyl)imidazo[1,5-a]pyrazin-3-yl)piperidin-1-yl)prop-2-en-1-one]
Btk occupancy in vivo (Btk [1]; 5 mg/kg single oral dose): full occupancy

C=CC(=O)N1CCC[C@H]1c1nc(-c2ccc(Oc3cccc(OC)c3F)cc2)c2cnccn12 [Compound 30, (S)-1-(2-(1-(4-(2-fluoro-3-methoxyphenoxy)phenyl)imidazo[1,5-a]pyrazin-3-yl)pyrrolidin-1-yl)prop-2-en-1-one]
Btk occupancy in vivo (Btk [1]; 5 mg/kg single oral dose): full occupancy

CC#CC(=O)N1CC[C@@H](c2nc(-c3ccc(C(=O)Nc4cc(C(F)(F)F)ccn4)cc3F)c3cncc(OCC)n23)C1 [Compound 198, (R)-4-(3-(1-(but-2-ynoyl)pyrrolidin-3-yl)-5-ethoxyimidazo[1,5-a]pyrazin-1-yl)-3-fluoro-N-(4-(trifluoromethyl)pyridin-2-yl)benzamide]
IC50 (BTK [2]): 10 to 100 nM

C=CC(=O)N1CCCC[C@H]1c1nc(-c2ccc(Oc3cccc(OC)c3F)cc2)c2c(C)nccn12 [Compound 27, (S)-1-(2-(1-(4-(2-fluoro-3-methoxyphenoxy)phenyl)-8-methylimidazo[1,5-a]pyrazin-3-yl)piperidin-1-yl)prop-2-en-1-one]
Btk occupancy in vivo (Btk [1]; 10 mg/kg single oral dose): full occupancy

CC#CC(=O)N1CCC[C@H]1c1nc(-c2ccc(C(=O)Nc3cc(C(F)(F)F)ccn3)cc2)c2cncc(OCC)n12 [Compound 203, (S)-4-(3-(1-(but-2-ynoyl)pyrrolidin-2-yl)-5-ethoxyimidazo[1,5-a]pyrazin-1-yl)-N-(4-(trifluoromethyl)pyridin-2-yl)benzamide]
IC50 (BTK [2]): 100 to 1000 nM

C=CC(=O)N1CC[C@@H](c2nc(-c3ccc(C(=O)Nc4cc(C(F)(F)F)ccn4)cc3F)c3cncc(OCC)n23)C1 [Compound 197, (R)-4-(3-(1-acryloylpyrrolidin-3-yl)-5-ethoxyimidazo[1,5-a]pyrazin-1-yl)-3-fluoro-N-(4-(trifluoromethyl)pyridin-2-yl)benzamide]
IC50 (BTK [2]; read-out: BTK Inhibition): < 10 nM

CC#CC(=O)N1CC[C@@H](c2nc(-c3ccc(C(=O)Nc4cc(C(F)(F)F)ccn4)cc3)c3cncc(OCC)n23)C1 [Compound 196, (R)-4-(3-(1-(but-2-ynoyl)pyrrolidin-3-yl)-5-ethoxyimidazo[1,5-a]pyrazin-1-yl)-N-(4-(trifluoromethyl)pyridin-2-yl)benzamide]
IC50 (BTK [2]): 100 to 1000 nM

C=CC(=O)N1CCC[C@H]1c1nc(-c2ccc(C(=O)Nc3cc(C(F)(F)F)ccn3)cc2)c2cncc(OCC)n12 [Compound 204, (S)-4-(3-(1-acryloylpyrrolidin-2-yl)-5-ethoxyimidazo[1,5-a]pyrazin-1-yl)-N-(4-(trifluoromethyl)pyridin-2-yl)benzamide]
IC50 (BTK [2]; read-out: BTK Inhibition): < 10 nM
